The structures appear in SMILES notation. Some results are limits rather than exact numbers.

Assay [1] has as its target T1, rat TRPA1 (Rattus norvegicus, UniProt Q6RI86).
T1 construct: expressed in transfected cells; host or cells: CHO cells (Zeocin selection)
Put plainly: 45Calcium uptake assay: inhibition of AITC induced cellular uptake of radioactive calcium, rat TRPA1 expressing CHO cells. As to conditions: AITC 10 μM; for IC50: class symbols; for inhibition at 10 µM: 10.0 μM compound, read-out: rat TRPA1 Percentage inhibition at 10.0 μM; for inhibition at 1 µM: read-out: rat TRPA1 Percentage inhibition. In kind it is cell-based. Summed up: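 CHO cells expressing rat or human TRPA1 were pre-treated with compound for 10 min, then given AITC (30 μM human, 10 μM rat) plus 5 μCi/ml 45Ca2+ for 3 min; final DMSO 0.5%. Lysate radioactivity was counted by scintillation. IC50 came from nonlinear regression of concentration-response curves as % of maximal response.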

In assay [2] the target is T2, human TRPA1 (Homo sapiens, UniProt O75762).
T2 construct: expressed in transfected cells; host or cells: CHO cells (G-418 selection)
The assay is described as follows: 45Calcium uptake assay: inhibition of AITC induced cellular uptake of radioactive calcium, human TRPA1 expressing CHO cells. The format is cell-based. As to conditions: AITC 30 μM; for inhibition at 1 µM: 1.0 μM compound, read-out: human TRPA1 Percentage inhibition at 1.0 μM; for inhibition at 10 µM: 10.0 μM compound, read-out: human TRPA1 Percentage inhibition at 10.0 μM; for IC50: class symbols. Summed up: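 CHO cells expressing TRPA1 were preincubated 10 min with compound (0.5% DMSO final), then given AITC (30 μM human, 10 μM rat) plus 5 μCi/ml 45Ca2+ for 3 min. Lysate radioactivity measured by scintillation; IC50 obtained by nonlinear regression of % maximal response without antagonist.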

T2 sequence (O75762 whole entry): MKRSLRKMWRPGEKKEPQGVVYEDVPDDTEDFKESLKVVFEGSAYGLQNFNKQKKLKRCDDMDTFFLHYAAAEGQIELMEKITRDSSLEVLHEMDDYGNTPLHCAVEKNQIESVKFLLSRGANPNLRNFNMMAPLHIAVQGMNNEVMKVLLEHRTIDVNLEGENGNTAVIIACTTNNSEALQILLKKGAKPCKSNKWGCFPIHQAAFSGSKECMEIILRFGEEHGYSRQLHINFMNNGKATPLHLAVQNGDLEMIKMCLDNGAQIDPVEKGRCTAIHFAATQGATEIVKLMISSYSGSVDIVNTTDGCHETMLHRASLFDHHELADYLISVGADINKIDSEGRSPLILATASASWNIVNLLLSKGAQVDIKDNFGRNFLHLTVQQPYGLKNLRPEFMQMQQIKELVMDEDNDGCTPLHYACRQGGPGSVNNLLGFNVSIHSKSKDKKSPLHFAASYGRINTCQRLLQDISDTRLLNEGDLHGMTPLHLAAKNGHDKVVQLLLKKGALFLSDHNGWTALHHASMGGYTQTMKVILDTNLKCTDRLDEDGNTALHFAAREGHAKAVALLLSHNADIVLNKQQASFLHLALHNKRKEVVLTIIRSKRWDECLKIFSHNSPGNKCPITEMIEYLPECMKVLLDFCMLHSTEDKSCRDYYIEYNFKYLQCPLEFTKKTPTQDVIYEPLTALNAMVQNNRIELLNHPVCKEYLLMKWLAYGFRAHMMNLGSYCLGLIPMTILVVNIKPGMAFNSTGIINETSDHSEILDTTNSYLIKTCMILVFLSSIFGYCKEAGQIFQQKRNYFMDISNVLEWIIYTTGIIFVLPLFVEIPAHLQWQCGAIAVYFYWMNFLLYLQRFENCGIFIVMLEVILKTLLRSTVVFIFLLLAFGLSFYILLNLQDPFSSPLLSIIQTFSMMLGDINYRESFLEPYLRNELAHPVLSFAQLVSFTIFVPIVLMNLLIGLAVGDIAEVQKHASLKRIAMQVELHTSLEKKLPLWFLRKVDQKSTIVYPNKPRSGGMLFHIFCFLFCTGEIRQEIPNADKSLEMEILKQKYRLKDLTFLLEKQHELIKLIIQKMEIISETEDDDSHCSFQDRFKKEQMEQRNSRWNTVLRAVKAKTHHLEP
T1 sequence (Q6RI86 whole entry): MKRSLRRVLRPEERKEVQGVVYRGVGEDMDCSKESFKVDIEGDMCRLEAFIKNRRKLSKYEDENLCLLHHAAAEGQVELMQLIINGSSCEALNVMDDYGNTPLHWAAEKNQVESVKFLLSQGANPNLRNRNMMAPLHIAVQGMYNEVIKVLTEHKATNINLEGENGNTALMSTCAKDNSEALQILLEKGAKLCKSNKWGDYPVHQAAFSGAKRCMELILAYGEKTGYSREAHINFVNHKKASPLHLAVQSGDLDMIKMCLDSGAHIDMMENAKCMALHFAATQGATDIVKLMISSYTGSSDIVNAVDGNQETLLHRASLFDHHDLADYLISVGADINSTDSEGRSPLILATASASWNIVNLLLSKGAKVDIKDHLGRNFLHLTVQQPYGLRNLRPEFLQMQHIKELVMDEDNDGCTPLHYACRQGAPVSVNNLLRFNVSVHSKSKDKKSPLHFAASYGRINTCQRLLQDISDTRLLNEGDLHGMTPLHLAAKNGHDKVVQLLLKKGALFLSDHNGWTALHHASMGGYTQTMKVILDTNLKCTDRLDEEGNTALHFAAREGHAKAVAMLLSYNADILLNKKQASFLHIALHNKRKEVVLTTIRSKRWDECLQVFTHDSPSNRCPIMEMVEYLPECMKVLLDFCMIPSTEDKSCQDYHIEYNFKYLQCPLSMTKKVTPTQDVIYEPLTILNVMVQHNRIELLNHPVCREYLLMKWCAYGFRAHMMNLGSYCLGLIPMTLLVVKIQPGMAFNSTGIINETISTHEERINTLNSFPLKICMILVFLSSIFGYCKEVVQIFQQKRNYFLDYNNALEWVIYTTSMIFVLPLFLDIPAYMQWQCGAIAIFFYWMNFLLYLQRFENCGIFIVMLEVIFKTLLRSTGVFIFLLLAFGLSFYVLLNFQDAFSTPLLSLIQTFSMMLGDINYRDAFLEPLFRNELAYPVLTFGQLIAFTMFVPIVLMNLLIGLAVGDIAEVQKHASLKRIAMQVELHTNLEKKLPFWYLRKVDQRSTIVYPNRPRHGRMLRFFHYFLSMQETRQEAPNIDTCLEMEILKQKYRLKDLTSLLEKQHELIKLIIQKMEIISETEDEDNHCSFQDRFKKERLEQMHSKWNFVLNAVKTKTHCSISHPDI

For orientation: IC50 means the point on the concentration scale where inhibition reaches its midpoint. As usually defined, the inhibition is the change of the read-out against control, counted positive when it falls. For `Cn1c(=O)c2c(CC(=O)Nc3nc(-c4cc(F)c(OCC(C)(C)C)c(F)c4)cs3)coc2n(C)c1=O` [Example 42, N1-{4-[3,5-Difluoro-4-(2,2-dimethylpropoxy)phenyl]-1,3-thiazol-2-yl}2-(1,3-dimethyl-2,4-dioxo-1,2,3,4-tetrahydrofuro[2,3-d]pyrimidin-5-yl)acetamide], the IC50 in assay [1] is less than 50 nM. In addition, in assay [2], the inhibition at 1 µM came to 96.1%, the inhibition at 10 µM came to 99.9% and the IC50 is less than 50 nM.
Take `Cn1c(=O)c2c(CC(=O)Nc3nc(-c4cc(Cl)c(OCC(C)(C)C)c(Cl)c4)cs3)coc2n(C)c1=O` [Example 43, N1-{4-[3,5-Dichloro-4-(2,2-dimethylpropoxy)phenyl]-1,3-thiazol-2-yl}-2-(1,3-dimethyl-2,4-dioxo-1,2,3,4-tetrahydrofuro[2,3-d]pyrimidin-5-yl)acetamide]: in assay [1], the inhibition at 10 µM is 100%, the inhibition at 1 µM is 89.2% and the IC50 is 50 to 100 nM. In assay [2], the inhibition at 1 µM amounted to 99.2%, the inhibition at 10 µM turned out to be 99.7% and the IC50 is less than 50 nM.
Turning to `Cn1c(=O)c2c(CC(=O)Nc3nc(-c4cc(F)c(OCC(C)(C)C)c(Cl)c4)cs3)coc2n(C)c1=O` [Example 44, N1-{4-[3-Chloro-5-fluoro-4-(2,2-dimethylpropoxy)phenyl]-1,3-thiazol-2-yl}-2-(1,3-dimethyl-2,4-dioxo-1,2,3,4-tetrahydrofuro[2,3-d]pyrimidin-5-yl)acetamide], in assay [1], the inhibition at 10 µM amounted to 99.2%, the inhibition at 1 µM worked out at 71% and the IC50 was less than 50 nM. Further, in assay [2], the inhibition at 1 µM was 100%, the inhibition at 10 µM was 99.5% and the IC50 was less than 50 nM.
Regarding `Cn1c(=O)c2c(CC(=O)Nc3nc(-c4cc(F)c(OCC(F)(F)F)c(F)c4)cs3)coc2n(C)c1=O` [Example 46, N1-{4-[3,5-Difluoro-4-(2,2,2-trifluoroethoxy)phenyl]-1,3-thiazol-2-yl}-2-(1,3-dimethyl-2,4-dioxo-1,2,3,4-tetrahydrofuro[2,3-d]pyrimidin-5-yl)acetamide], in assay [1], the inhibition at 10 µM was 99.5%, the inhibition at 1 µM came out at 96.1% and the IC50 lay in the range of 50 to 100 nM. Also, in assay [2], the inhibition at 1 µM came to 99.8%, the inhibition at 10 µM amounted to 100% and the IC50 is less than 50 nM.
Take `Cn1c(=O)c2c(CC(=O)Nc3nc(-c4cc(Cl)c(OCC(F)(F)F)c(Cl)c4)cs3)coc2n(C)c1=O` [Example 47, N1-{4-[3,5-Dichloro-4-(2,2,2-trifluoroethoxy)phenyl]-1,3-thiazol-2-yl}2-(1,3-dimethyl-2,4-dioxo-1,2,3,4-tetrahydrofuro[2,3-d]pyrimidin-5-yl)acetamide]: in assay [1], the inhibition at 10 µM amounted to 100%, the inhibition at 1 µM is 86% and the IC50 is less than 50 nM. For the same molecule, in assay [2], the inhibition at 1 µM is 99.2%, the inhibition at 10 µM amounted to 99.8% and the IC50 is less than 50 nM.
In the case of `Cn1c(=O)c2c(CC(=O)Nc3nc(-c4cc(F)c(OCC(F)(F)F)c(Cl)c4)cs3)coc2n(C)c1=O` [Example 48, N1-{4-[3-Chloro-5-fluoro-4-(2,2,2-trifluoroethoxy)phenyl]-1,3-thiazol-2-yl}-2-(1,3-dimethyl-2,4-dioxo-1,2,3,4-tetrahydrofuro[2,3-d]pyrimidin-5-yl)acetamide], in assay [1], the inhibition at 10 µM was 99.2%, the inhibition at 1 µM came to 99.6% and the IC50 was less than 50 nM. Also, in assay [2], the inhibition at 1 µM was 96.6%, the inhibition at 10 µM was determined as 95.1% and the concentration for half-maximal inhibition (IC50) was less than 50 nM.
As for `Cn1c(=O)c2c(CC(=O)Nc3nc(-c4cc(F)c(OCCC(F)(F)F)c(F)c4)cs3)coc2n(C)c1=O` [Example 49, N1-{4-[3,5-Difluoro-4-(3,3,3-trifluoropropoxy)phenyl]-1,3-thiazol-2-yl}-2-(1,3-dimethyl-2,4-dioxo-1,2,3,4-tetrahydrofuro[2,3-d]pyrimidin-5-yl)acetamide], in assay [1], the inhibition at 10 µM is 97.7%, the inhibition at 1 µM was found to be 86.6% and the IC50 is less than 50 nM. In assay [2], the inhibition at 1 µM worked out at 95.6%, the inhibition at 10 µM came out at 98.3% and the IC50 was less than 50 nM.
As for `Cc1oc2c(c1CC(=O)Nc1nc(-c3ccc(C(F)(F)F)cc3)cs1)c(=O)n(C)c(=O)n2C` [Example 50, N1-{4-[4-(Trifluoromethyl)phenyl]-1,3-thiazol-2-yl}-2-(1,3,6-trimethyl-2,4-dioxo-1,2,3,4-tetrahydrofuro[2,3-d]pyrimidin-5-yl)acetamide], in assay [1], the inhibition at 10 µM is 100% and the inhibition at 1 µM stood at 99.9%. For the same molecule, in assay [2], the inhibition at 1 µM was 99.6% and the inhibition at 10 µM was 98.3%.
In the same order, the values of `Cc1oc2c(c1CC(=O)Nc1nc(-c3cccc(C(F)(F)F)c3)cs1)c(=O)n(C)c(=O)n2C` [Example 51, N1-{4-[3-(Trifluoromethyl)phenyl]-1,3-thiazol-2-yl}-2-(1,3,6-trimethyl-2,4-dioxo-1,2,3,4-tetrahydrofuro[2,3-d]pyrimidin-5-yl)acetamide] are 100%, 100%, 99.8% and 100%.
The like results for `Cc1oc2c(c1CC(=O)Nc1nc(-c3cccc(OC(F)(F)F)c3)cs1)c(=O)n(C)c(=O)n2C` [Example 52, N1-{4-[3-(Trifluoromethoxy)phenyl]-1,3-thiazol-2-yl}-2-(1,3,6-trimethyl-2,4-dioxo-1,2,3,4-tetrahydrofuro[2,3-d]pyrimidin-5-yl)acetamide] were, in that order, 100%, 100%, 99.1% and 99.2%.
For `Cc1oc2c(c1CC(=O)Nc1nc(-c3ccc(OC(F)(F)F)cc3)cs1)c(=O)n(C)c(=O)n2C` [Example 53, N1-{4-[4-(Trifluoromethoxy)phenyl]-1,3-thiazol-2-yl}-2-(1,3,6-trimethyl-2,4-dioxo-1,2,3,4-tetrahydrofuro[2,3-d]pyrimidin-5-yl)acetamide], in assay [1], the inhibition at 10 µM was 100% and the inhibition at 1 µM was 100%. Further, in assay [2], the inhibition at 1 µM worked out at 99.7% and the inhibition at 10 µM came to 97.3%.
For `Cc1oc2c(c1CC(=O)Nc1nc(-c3ccc(Cl)c(Cl)c3)cs1)c(=O)n(C)c(=O)n2C` [Example 54, N1-[4-(3,4-Dichlorophenyl)-1,3-thiazol-2-yl]-2-(1,3,6-trimethyl-2,4-dioxo-1,2,3,4-tetrahydrofuro[2,3-d]pyrimidin-5-yl)acetamide], the IC50 in assay [1] was 50 to 100 nM; in assay [2] it was less than 50 nM.
Take `Cc1oc2c(c1CC(=O)Nc1nc(-c3cccc(Cl)c3Cl)cs1)c(=O)n(C)c(=O)n2C` [Example 55, N1-[4-(2,3-Dichlorophenyl)-1,3-thiazol-2-yl]-2-(1,3,6-trimethyl-2,4-dioxo-1,2,3,4-tetrahydrofuro[2,3-d]pyrimidin-5-yl)acetamide]: in assay [1], the inhibition at 10 µM stood at 100% and the inhibition at 1 µM stood at 97.7%. In assay [2], the inhibition at 1 µM was found to be 95.8% and the inhibition at 10 µM was determined as 99%.
Consider `Cc1oc2c(c1CC(=O)Nc1nc(-c3ccc(F)c(C(F)(F)F)c3)cs1)c(=O)n(C)c(=O)n2C` [Example 58, N1-{4-[4-Fluoro-3-(trifluoromethyl)phenyl]-1,3-thiazol-2-yl}-2-(1,3,6-trimethyl-2,4-dioxo-1,2,3,4-tetrahydrofuro[2,3-d]pyrimidin-5-yl)acetamide], for which the IC50 in assay [1] and in assay [2] was less than 50 nM in each case.
